Assay results published in patent publication US20170183306A1, “CYCLIC COMPOUNDS HAVING A 1,3 DIAMINO-FUNCTIONALITY FOR USE IN THE TREATMENT OF HIV INFECTION” (Universite Paris Descartes, priority 2014, published 2017).
Read-outs that look alike come from different tables or passages of the source.

Key:
[1] = cited from earlier work
[2] = tested on: Laï virus in MT2 cells (human lymphocytic cell line); assay: MT2 cells infected with Laï virus, real-time PCR of viral RNA of the supernatant; type: cell-based, HIV-1; settings: for viral RNA of the supernatant, 10 μM / viral RNA of the supernatant, 25 μM / viral RNA of the supernatant, 50 μM / viral RNA of the supernatant, 100 μM: 3 days of culture, control = virus without any added compound; for viral replication in human lymphocytes (in words): summary of Table 3
Method: In an experiment, MT2 cells (human lymphocytic cell line) are infected with the Laï virus to a multiplicity of infection of 0.3 and incubated with compounds A, B, C or D at four different concentrations.
After 3 days of culture, real-time PCR quantification of the viral RNA of the supernatant is performed (COBAS Ampliprep/COBAS TaqMan HIV-1 assay, version 2).
The results are expressed as percentage of control (virus without any added compound) in Table 3.

HeLa-p4 cells = assay: Cell viability assay (MTS) on HeLa-p4 cells; type: cell-based; settings: cell viability
How it was run: (§1)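 HeLa CD4 LTR-LacZ cells infected with 1 ng p24 of wild-type NL4-3 alongside graded compound concentrations; β-galactosidase measured 48 h post-infection by CPRG colorimetry, expressed as percent of untreated virus control. Viability assessed by MTS absorbance at […].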

[3] = tested on: wild type NL4-3 virus (HIV-1) in HeLa-p4 cells; assay: HeLa-p4 single-cycle HIV-1 infectivity, beta-galactosidase CPRG test; type: cell-based; settings: Human immunodeficiency virus 1, NL43, HeLaP4, 48 hours after infection, control = NL4-3 virus alone; for activity at 50 µM: read-out: Hela-p4 CPRG 50 μM; for activity at 100 µM: read-out: Hela-p4 CPRG 100 μM
How it was run: as §1

J-Lat cells = assay: J-Lat cells, percentage of GFP-positive cells by cytometry; type: cell-based; settings: 24 h, compound alone
How it was run: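 J-Lat cells (5.105 per well, RPMI/10% FBS) treated 24 h with compound alone at 37 °C. After PFA fixation, GFP-positive cells counted by flow cytometry and reported as percentage of living fluorescent cells.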

[4] = tested on: HIV in T CD4+ cells from HIV-infected patients; assay: HIV production by CD4+ T cells of HIV-infected, antiretroviral-treated, aviremic patients (real time PCR); type: cell-based, HIV-1; settings: one line per patient; for Compound: ratio of the viral load of interest/viral load of negative control: compound alone
Source text: For experiments using primary cells obtained from HIV-infected, antiretroviral-treated, aviremic patients, total CD4+ cells are isolated by a MACS) Whole Blood MicroBead Technology (Miltenyi). Briefly, T CD4+ cells from whole blood are magnetically labeled with MACS MicroBeads and specific antibodies. Cells are separated in a MACS Column placed in a MACS Separator. The flow-through fraction can be collected as the negative fraction depleted of the labeled cells. The column is removed from the separator and the retained cells are eluted as the enriched, positively selected cell fraction. The T CD4+ cells were then cultured with a T cell activation/expansion kit (Miltenyi). The cells are activated for up to 3 days with Anti-Biotin MACSiBead Particle conjugated to monoclonal anti-biotin antibodies (anti CD2-biotin, […] and anti CD28-biotin). Expansion is achieved by adding IL-2 and fresh medium for 4 days. Then, these T CD4+ cells are considered as positive culture. A negative control was the same proportion of cells cultured without stimuli like antibodies and IL-2. The T CD4+ cells were cultured with compounds alone or in combination with antibodies or IL-2. The HIV production in cell culture media was measured by real time PCR (Cobas AmpliPrep/Cobas Taqman HIV-1 test, V2.0, Roche). The results are expressed in table 2 as a ratio of the viral load of interest/viral load of negative control or as a ratio of the viral load of interest/viral load of positive control.

HIV = settings: cited from earlier work

Compound: Cc1[nH]c2ccccc2c1CCNCc1ccc(/C=C/C(=O)NO)cc1 [LBH589]
- adverse effects in clinical trials ([1]; in vivo): important adverse effects

Compound: N[C@@H]1C[C@H](N)CN(c2ccc(NC(=O)c3ccccc3)c(O)c2)C1 [Compound C]
- viral RNA of the supernatant, 10 μM [2]: 21200 percentage of control
- viral RNA of the supernatant, 25 μM [2]: 83500 percentage of control
- viral RNA of the supernatant, 50 μM [2]: 66400 percentage of control
- viral RNA of the supernatant, 100 μM [2]: 931700 percentage of control
- viral replication in human lymphocytes (in words) [2]: induce viral replication at an extremely high level

Compound: COc1ccc(CCN2C[C@H](N)C[C@H](N)C2)cc1OC [Compound A]
- viral RNA of the supernatant, 10 μM [2]: 130 percentage of control
- viral RNA of the supernatant, 25 μM [2]: 60 percentage of control
- viral RNA of the supernatant, 50 μM [2]: 50 percentage of control
- viral RNA of the supernatant, 100 μM [2]: 73200 percentage of control
- viral replication in human lymphocytes (in words) [2]: induce viral replication at an extremely high level

Compound: O=C(CCCCCCC(=O)Nc1ccccc1)NO [vorinostat]
- adverse effects in clinical trials ([1]; first results of on-going clinical trials): important adverse effects

Compound: CC(C)(C)OC(=O)N[C@@H]1CNC[C@H](NC(=O)OC(C)(C)C)C1 [ECO02-051-C]
- Hela-p4 MTS 50 μM (HeLa-p4 cells): 95
- Hela-p4 MTS 100 μM (HeLa-p4 cells): 96
- Hela-p4 MTS 200 μM (HeLa-p4 cells): 77
- activity at 50 µM [3]: 124%
- activity at 100 µM [3]: 200%
- activity at 200 µM [3]: 397%
- J-lat 50 μM (J-Lat cells): 1.1 percentage of the living fluorescent cells
- Compound: ratio of the viral load of interest/viral load of negative control [4]: 1
- Compound + IL2: ratio of the viral load of interest/viral load of negative control ([4]; compound in combination with IL2): 1

Compound: CCN(CC)C(=S)SSC(=S)N(CC)CC [Disulfirame]
- capacity to induce HIV replication in clinical trial (HIV): low capacity to induce HIV replication

Compound: COC(=O)C(Cc1ccccc1)N1C[C@H](N)C[C@H](N)C1 (stereo partly shown) [Compound B]
- viral RNA of the supernatant, 10 μM [2]: 420 percentage of control
- viral RNA of the supernatant, 25 μM [2]: 40 percentage of control
- viral RNA of the supernatant, 50 μM [2]: 70 percentage of control
- viral RNA of the supernatant, 100 μM [2]: 32400 percentage of control
- viral replication in human lymphocytes (in words) [2]: induce viral replication at an extremely high level

Compound: C/C=C1\NC(=O)[C@H]2CSSCC/C=C/[C@H](CC(=O)N[C@H](C(C)C)C(=O)N2)OC(=O)[C@H](C(C)C)NC1=O [Romidepsin]
- adverse effects in clinical trials ([1]; in vivo): important adverse effects

Compound: N[C@@H]1CNC[C@H](N)C1 [ECO01-025-C2, piperidine-3,5-diamine]
- Hela-p4 MTS 50 μM (HeLa-p4 cells): 104
- Hela-p4 MTS 100 μM (HeLa-p4 cells): 79
- Hela-p4 MTS 200 μM (HeLa-p4 cells): 70
- activity at 50 µM [3]: 166%
- activity at 100 µM [3]: 280%
- activity at 200 µM [3]: 317%
- J-lat 50 μM (J-Lat cells): 0.7 percentage of the living fluorescent cells
- Compound: ratio of the viral load of interest/viral load of negative control [4]: 1

Compound: COc1cccc(CCN2C[C@H](NC(=O)OC(C)(C)C)C[C@H](NC(=O)OC(C)(C)C)C2)c1 [ECO03-03-C, di-tert-butyl (1-(3-methoxyphenethyl)piperidine-3,5-diyl)dicarbamate]
- Hela-p4 MTS 50 μM (HeLa-p4 cells): 105
- Hela-p4 MTS 100 μM (HeLa-p4 cells): 104
- Hela-p4 MTS 200 μM (HeLa-p4 cells): 104
- activity at 50 µM [3]: 148%
- activity at 100 µM [3]: 341%
- activity at 200 µM [3]: 440%
- J-lat 50 μM (J-Lat cells): 0.4 percentage of the living fluorescent cells

Compound: Cc1cccc(CCN2C[C@H](N)C[C@H](N)C2)c1 [ECO01-030-C, 1-(3-methylphenethyl)piperidine-3,5-diamine]
- Hela-p4 MTS 50 μM (HeLa-p4 cells): 84
- Hela-p4 MTS 100 μM (HeLa-p4 cells): 82
- activity at 50 µM [3]: 125%
- activity at 100 µM [3]: 103%
- J-lat 50 μM (J-Lat cells): 0.1 percentage of the living fluorescent cells
- J-lat 100 μM (J-Lat cells; 100 μM): 0 percentage of the living fluorescent cells
